Results on 33 molecules are retold here after patent US6500846B1, “CDK inhibitors having flavone structure” (LG Chemical, Ltd., priority 1998, dated 2002).

Some results are limits rather than exact numbers.

The target of experiment [1] is T1, CDK2/cyclin A (Homo sapiens, UniProt P24941).
T1 construct: made in house; host or cells: insect cells infected with baculoviruses
The experiment is described as follows: Inhibitory activity against CDK2/cyclin A enzyme (GST-RB phosphorylation, P32-γ-ATP, scintillation counting). In kind it is biochemical. The following applies: 100 μM ATP, GST-RB substrate, 30° C. 30 minutes. Here is the method: (§1) Analysis of inhibitory activity against CDK2/cyclin A and CDK4/cyclin D1 enzyme.
(§2) The inhibitory activity against CDK2 is measured by referring to Kitagawa, M. et al., Oncogene 9:2549, 1994 and the inhibitory activity against CDK4 is measured by referring to Carlson, B. A. et al., Cancer Research 56:2473,1996.
(§3) As for CDK2, either the extract from the insect cell infected both with baculovirus which expresses CDK2 gene and baculovirus which expresses cyclin A gene or the active enzyme which had been purified therefrom was used. CDK4 enzyme was also obtained from the insect cell infected both with baculovirus expressing CDK4 gene and baculovirus expressing cyclin D1 gene. As the substrate for CDK2, either histon H1 or Rb protein was used. Rb protein was also used as the substrate for CDK4.
(§4) Specifically the activities of enzymes CDK2/cyclin A and CDK4/cyclin D1 were determined according to the following procedure.
(§5) 100 ng of enzyme was reacted in a total 1000 μl of 20 mM Tris (pH 8.0), 100 mM NaCl, 10 mM MgCl2 buffer solution containing 20 μg of GST-RB protein, 100 μM of ATP and 5 μCi of P32-γ-ATP at 30° C. for 30 minutes. Then, the enzyme reaction was stopped by adding EDTA to a concentration of 20 mM. Subsequently, 30 μl of 50% glutathione bead (purchased from Pharmacia) was added to attach GST-RB to the bead, which was washed three times with 20mM Tris (pH 8.0), 100 mM NaCl, 10 mM EDTA solution, and then scintillation counting was carried out. To analyze the inhibitory activity of the compound, the inhibitor having a proper concentration was added to the enzyme reaction solution, and then the enzyme activity was measured according to the above method.
(§6) The inhibitory activity of the compound of formula (1) according to the present invention against CDK2 and CDK4 is represented as IC50 value. The compounds which are not included in Examples(compound 63, 64, 65 and 66) were synthesized and purified according to the same procedure as examples, and then IC50 thereof was measured.

For experiment [2], the target named is T2, CDK4/cyclin D1 (Homo sapiens, UniProt P11802).
T2 construct: made in house; host or cells: insect cells infected with baculoviruses
Kind of experiment: Inhibitory activity against CDK4/cyclin D1 enzyme (GST-RB phosphorylation, P32-γ-ATP, scintillation counting). In kind it is biochemical. The following applies: CDK4/cyclin D1, 100 μM ATP, GST-RB substrate, 30° C. 30 minutes. As to the method:
as §1, §2, §3, §4, §5, §6

T2 sequence (P11802 whole entry, species assumed): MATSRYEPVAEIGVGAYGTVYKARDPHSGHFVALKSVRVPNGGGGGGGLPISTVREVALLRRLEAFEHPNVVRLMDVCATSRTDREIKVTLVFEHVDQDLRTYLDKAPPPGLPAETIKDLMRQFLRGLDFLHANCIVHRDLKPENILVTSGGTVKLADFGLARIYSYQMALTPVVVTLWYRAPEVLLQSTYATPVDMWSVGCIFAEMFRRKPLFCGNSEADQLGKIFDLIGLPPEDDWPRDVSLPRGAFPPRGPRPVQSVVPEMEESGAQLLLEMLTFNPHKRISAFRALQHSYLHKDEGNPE
T2 sequence (P24385 whole entry partner, species assumed): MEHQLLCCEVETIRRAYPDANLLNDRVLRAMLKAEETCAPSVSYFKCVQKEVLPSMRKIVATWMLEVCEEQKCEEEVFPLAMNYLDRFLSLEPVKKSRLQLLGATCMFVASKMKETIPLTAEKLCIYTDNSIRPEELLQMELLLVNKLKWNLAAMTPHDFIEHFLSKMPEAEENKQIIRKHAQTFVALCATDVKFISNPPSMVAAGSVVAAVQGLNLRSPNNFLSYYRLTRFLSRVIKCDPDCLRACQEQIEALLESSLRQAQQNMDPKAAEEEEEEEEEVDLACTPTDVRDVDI

`COc1ccc2c(=O)cc(-c3ccc(Cl)cc3)oc2c1` [Compound 1, 2-(4-chloro-phenyl)-7-methoxy-chromen-4-one]: the IC50 in experiment [1] and in experiment [2] was > 200 µM each time.
In the case of `COc1ccc2c(=O)cc(-c3ccccc3)oc2c1` [Compound 2, 7-methoxy-2-phenyl-chromen-4-one], the concentration for half-maximal inhibition (IC50) in experiment [1] and in experiment [2] was > 200 µM in each case.
As to `O=c1cc(-c2ccccc2)oc2cc(O)ccc12` [Compound 3, 7-hydroxy-2-phenyl-chromen-4-one], the half-maximal inhibitory concentration (IC50) in experiment [1] and in experiment [2] was > 200 µM in each case.
As for `COc1cccc2oc(-c3ccc4c(c3)OCO4)c(O)c(=O)c12` [Compound 4, 2-(benzo[1,3]dioxol-5-yl)-3-hydroxy-5-methoxy-chromen-4-one], the IC50 in experiment [1] and in experiment [2] was > 100 µM throughout.
In the case of `COc1ccc2oc(-c3ccc4c(c3)OCO4)c(O)c(=O)c2c1` [Compound 5, 2-(benzo[1,3]dioxol-5-yl)-3-hydroxy-6-methoxy-chromen-4-one], the IC50 in experiment [1] and in experiment [2] was > 100 µM throughout.
On to `COc1ccc2c(=O)c(O)c(-c3ccc4c(c3)OCO4)oc2c1` [Compound 6, 2-(benzo[1,3]dioxol-5-yl)-3-hydroxy-7-methoxy-chromen-4-one], for which the half-inhibitory concentration (IC50) in experiment [1] and in experiment [2] was > 100 µM in each case.
As for `COc1ccc(-c2oc3cc(OC)ccc3c(=O)c2O)cc1` [Compound 7, 3-hydroxy-7-methoxy-2-(4-methoxy-phenyl)-chromen-4-one], the IC50 in experiment [1] and in experiment [2] was > 100 µM each time.
Consider `COc1ccc2c(=O)c(O)c(-c3ccc(Cl)cc3)oc2c1` [Compound 8, 2-(4-chloro-phenyl)-3-hydroxy-7-methoxy-chromen-4-one], for which the IC50 in experiment [1] and in experiment [2] was > 100 µM each time.
Consider `COc1ccc(-c2oc3c([N+](=O)[O-])cc(Cl)cc3c(=O)c2O)cc1` [Compound 9, 6-chloro-3-hydroxy-2-(4-methoxy-phenyl)-8-nitro-chromen-4-one], for which the half-maximal inhibitory concentration (IC50) in experiment [1] and in experiment [2] was > 100 µM each time.
`COc1ccc(-c2oc3c(Cl)cc(Cl)cc3c(=O)c2O)cc1` [Compound 10, 6,8-dichloro-3-hydroxy-2-(4-methoxy-phenyl)-chromen-4-one]: the IC50 in experiment [1] and in experiment [2] was > 100 µM throughout.
For `COc1ccc(-c2oc3ccccc3c(=O)c2O)cc1` [Compound 11, 3-hydroxy-2-(4-methoxy-phenyl)-chromen-4-one], the IC50 in experiment [1] and in experiment [2] was > 100 µM in each case.
Turning to `O=c1c(O)c(-c2ccc(O)c(O)c2)oc2ccc(Cl)cc12` [Compound 12, 6-chloro-2-(3,4-dihydroxyphenyl)-3-hydroxy-4H-chromen-4-one], the IC50 is < 5 µM in experiment [1] and < 10 µM in experiment [2].
In the case of `O=c1c(O)c(-c2ccc(O)c(O)c2)oc2ccc(Br)cc12` [Compound 13, 6-bromo-2-(3,4-dihydroxyphenyl)-3-hydroxy-4H-chromen-4-one], the IC50 in experiment [1] and in experiment [2] was < 5 µM each time.
Take `Nc1ccc2oc(-c3ccc(O)c(O)c3)c(O)c(=O)c2c1` [Compound 15, 6-amino-2-(3,4-dihydroxyphenyl)-3-hydroxy-4H-chromen-4-one]: the IC50 in experiment [1] and in experiment [2] was < 5 µM throughout.
For the molecule `COc1ccc2oc(-c3ccc(O)c(O)c3)c(O)c(=O)c2c1` [Compound 16, 2-(3,4-dihydroxyphenyl)-3-hydroxy-6-methoxy-4H-chromen-4-one], the IC50 in experiment [1] and in experiment [2] was < 10 µM in each case.
Turning to `Cc1ccc2oc(-c3ccc(O)c(O)c3)c(O)c(=O)c2c1` [Compound 18, 6-methyl-2-(3,4-dihydroxyphenyl)-3-hydroxy-4H-chromen-4-one], the 50% inhibitory concentration (IC50) in experiment [1] and in experiment [2] was < 10 µM each time.
On to `O=c1c(O)c(-c2ccc(O)c(O)c2)oc2c(Cl)cc(Cl)cc12` [Compound 19, 6,8-dichloro-2-(3,4-dihydroxyphenyl)-3-hydroxy-4H-chromen-4-one], for which the IC50 in experiment [1] and in experiment [2] was < 10 µM each time.
For `O=c1c(O)c(-c2ccc(O)c(O)c2)oc2c(Br)cc(Br)cc12` [Compound 20, 6,8-Dibromo-2-(3,4-dihydroxyphenyl)-3-hydroxy-4H-chromen-4-one], the IC50 in experiment [1] and in experiment [2] was < 5 µM in each case.
With `O=c1c(O)c(-c2ccc(O)c(O)c2)oc2c(F)cc(F)cc12` [Compound 21, 6,8-difluoro-2-(3,4-dihydroxyphenyl)-3-hydroxy-4H-chromen-4-one], the half-inhibitory concentration (IC50) in experiment [1] and in experiment [2] was < 10 µM in each case.
With `Cc1cc2oc(-c3ccc(O)c(O)c3)c(O)c(=O)c2cc1Cl` [Compound 22, 6-chloro-2-(3,4-dihydroxyphenyl)-3-hydroxy-7-methyl-4H-chromen4-one], the IC50 in experiment [1] and in experiment [2] was < 10 µM throughout.
For `COc1ccc2c(=O)c(O)c(-c3ccc(O)c(O)c3)oc2c1` [Compound 23, 2-(3,4-Dihydroxyphenyl)-3-hydroxy-7-methoxy-4H-chromen-4-one], the IC50 in experiment [1] and in experiment [2] was < 30 µM in each case.
Regarding `COc1ccc2c(=O)c(O)c(-c3ccc(O)c(O)c3)oc2c1O` [Compound 24, 2-(3,4-dihydroxyphenyl)-3,8-dihydroxy-7-methoxy-4H-chromen-4-one], the IC50 in experiment [1] and in experiment [2] was < 10 µM throughout.
As to `O=c1c(O)c(-c2ccc(O)c(O)c2)oc2c(O)cccc12` [Compound 25, 2-(3,4-dihydroxyphenyl)-3,8-dihydroxy-4H-chromen-4-one], the 50% inhibitory concentration (IC50) in experiment [1] and in experiment [2] was < 10 µM throughout.
Consider `Cc1cc2oc(-c3ccc(O)c(O)c3)c(O)c(=O)c2cc1C` [Compound 26, 2-(3,4-dihydroxyphenyl)-6,7-dimethyl-3-hydroxy-4H-chromen-4-one], for which the half-maximal inhibitory concentration (IC50) in experiment [1] and in experiment [2] was < 10 µM throughout.
`COc1cccc2oc(-c3ccc(O)c(O)c3)c(O)c(=O)c12` [Compound 27, 2-(3,4-dihydroxyphenyl)-3-hydroxy-5-methoxy-4H-chromen-4-one]: the half-maximal inhibitory concentration (IC50) in experiment [1] and in experiment [2] was < 10 µM throughout.
With `O=c1c(O)c(-c2ccc(O)c(O)c2)oc2ccc(NS(=O)(=O)c3ccc(Br)cc3)cc12` [Compound 29, 4-bromo-N-[2-(3,4-dihydroxyphenyl)-3-hydroxy-4-oxo-4H-chromen-6-yl]benzenesulfonamide], the half-maximal inhibitory concentration (IC50) came out at 17.8 µM in experiment [1] and 1.8 µM in experiment [2].
Consider `O=c1c(O)c(-c2ccc(O)c(O)c2)oc2ccc(NS(=O)(=O)c3cccc(Br)c3)cc12` [Compound 30, 3-bromo-N-[2-(3,4-dihydroxyphenyl)-3-hydroxy-4-oxo-4H-chromen-6-yl]benzenesulfonamide], for which the half-maximal inhibitory concentration (IC50) amounted to 14 µM in experiment [1] and 2.1 µM in experiment [2].
For `O=c1c(O)c(-c2ccc(O)c(O)c2)oc2ccc(NS(=O)(=O)c3ccc4ccccc4c3)cc12` [Compound 31, N-[2-(3,4-dihydroxyphenyl)-3-hydroxy-4-oxo-4H-chromen-6-yl]-2-naphthalenesulfonamide], in that order: 35.5 µM and 4.2 µM.
The matching figures for `CN(C)c1cccc2c(S(=O)(=O)Nc3ccc4oc(-c5ccc(O)c(O)c5)c(O)c(=O)c4c3)cccc12` [Compound 32, N-[2-(3,4-dihydroxyphenyl)-3-hydroxy-4-oxo-4H-chromen-6-yl]-5-(dimethylamino)-1-naphthalenesulfonamide]: 35.5 µM and 4.2 µM.
On to `O=c1c(O)c(-c2ccc(O)c(O)c2)oc2ccc(NS(=O)(=O)CCc3cccc4ccccc34)cc12` [Compound 33, N-[2-(3,4-dihydroxyphenyl)-3-hydroxy-4-oxo-4H-chromen-6-yl]-2-(1-naphthyl)-1-ethanesulfonamide], for which the half-inhibitory concentration (IC50) in experiment [1] turned out to be 63 µM; in experiment [2] it was 5 µM.
With `O=c1c(O)c(-c2ccc(O)c(O)c2)oc2ccc(NS(=O)(=O)c3cc(Br)c(Br)s3)cc12` [Compound 34, 4,5-Dibromo-N-[2-(3,4-dihydroxyphenyl)-3-hydroxy-4-oxo-4H-chromen-6-yl]-2-thiophenesulfonamide], the values for the IC50 in experiment [1] and in experiment [2] were 3 µM and 1 µM, respectively.
For `O=c1c(O)c(-c2ccc(O)c(O)c2)oc2ccc(NS(=O)(=O)c3ccc(-c4ccccc4)cc3)cc12` [Compound 35, N-[2-(3,4-Dihydroxyphenyl)-3-hydroxy-4-oxo-4H-chromen-6-yl]-[1,1′-biphenyl]-4-sulfonamide], in that order: 4 µM and 2 µM.
Consider `O=c1c(O)c(-c2ccc(O)c(O)c2)oc2ccc(NS(=O)(=O)c3ccc(N4CCOCC4)c([N+](=O)[O-])c3)cc12` [Compound 48, N-[2-(3,4-dihydroxyphenyl)-3-hydroxy-4-oxo-4H-chromen-6-yl]-4-(4-morpholinyl)-3-nitrobenzenesulfonamide], for which, in experiment [2], inhibition was half-maximal at 0.94 µM (IC50).
